Laboratory results from patent US20240417410A1, “TRICYCLIC COMPOUNDS FOR THE TREATMENT OF CANCER” (Hoffmann-La Roche Inc., priority 2023, published 2024).
pIC50: −log10 of the molar value.

How the values were obtained:
WT NRAS-BRAF complex = assay: WT NRAS-BRAF with CYPA interaction assay (TR-FRET); assay type: biochemical
Protocol: (§1) In this example, TR-FRET was used to measure the compound or compound-CYPA dependent disruption of the KRAS G12V-BRAF complex to assess inhibition efficacy. The IC50 ratio between WT KRAS/HRAS/NRAS and KRAS G12V mutant was calculated as selective index, which indicated tolerability and safety profile. Disruption of WT KRAS/HRAS/NRAS-BRAF complex by compounds was detected respectively. In assay buffer containing 25 mM HEPES (PH-7.4,4-(2-hydroxyethyl)-1-piperazineethanesulfonic acid, Thermo, 15630080), 0.002% Tween20, 0.1% BSA, 100 mM NaCl, 5 mM MgCl2, 10 μM GMPPNP (Guanosine 5′-[β,γ-imido]triphosphate trisodium salt hydrate, Sigma, G0635), tagless CYPA and GMPPNP loaded 6His-RAS proteins, and GST-BRAF^RBD were mixed in a well of a 384-well assay plate at final concentrations of 50 nM, 6.25 nM and 1 nM, respectively. Compound was present in plate wells as a 16-point 3-fold dilution series starting at a final concentration of 10 μM and incubated for 3 hours. A mixture of MAb Anti-6His-XL665 (Cisbio, 61HISXLB) and Mab anti-GST-TB cryptate (Cisbio, 61GSTTLB) was then added at a final concentration of 6.67 nM and 0.21 nM, respectively, and the plate was incubated for an additional 1.5 hours. TR-FRET signal was read on a PHERstar FSX microplate reader (Ex320 nm, Em 665/615 nm). Compounds that facilitate disruption of the RAS-BRAF complex were identified as those eliciting a decrease in the TR-FRET ratio relative to DMSO control wells.

[1] = tested on: phosphorylation of ERK, KRAS G12V in SW620; assay: pERK inhibition assay; assay type: cell-based; conditions: Homo sapiens, SW-620, 4 h, SW620 cells
In short: (§2)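 Cells in RPMI-1640 with 10% FBS were plated overnight (30,000/well H358, 20,000 AGS, 30,000 SW620) and treated 4 h with compounds at 0.5% DMSO. After formaldehyde fixation and methanol permeabilization, pERK was detected by in-cell ELISA with HRP secondary and TMB (OD450); IC50 from 4-parameter fit.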

[2] = tested on: phosphorylation of ERK, KRAS G12C in NCI-H358 cells; assay: pERK inhibition assay; assay type: cell-based; conditions: Homo sapiens, NCI-H358, 4 h
In short: as §2

[3] = tested on: phosphorylation of ERK, KRAS G12D in AGS cells; assay: pERK inhibition assay; assay type: cell-based; conditions: 4 hours
In short: as §2

WT KRAS-BRAF complex = assay: WT KRAS-BRAF with CYPA interaction assay (TR-FRET); assay type: biochemical
Protocol: as §1

Compound: CO[C@@H](C)c1ncc(N2CCN(C)CC2)cc1-c1c2c3cc(cc4c3n1CCC4)-c1csc(n1)C[C@H](NC(=O)[C@H]1[C@H](C)[C@@H]1C)C(=O)N1CCC[C@H](N1)C(=O)OCC(C)(C)C2 (atropisomer, axis not shown; (M)) [Example 24, (1r,2R,3S)-N-[(7S,13S)-(20M)-20-[2-[(1S)-1-methoxyethyl]-5-(4-methylpiperazin-1-yl)-3-pyridyl]-17,17-dimethyl-8,14-dioxo-15-oxa-4-thia-9,21,30,31-tetrazahexacyclo[23.3.1.1^2,5.1^9,13.0^19,27.0^21,26]hentriaconta-1 (28),2,5 (31), 19,25 (29),26-hexaen-7-yl]-2,3-dimethyl-cyclopropanecarboxamide]
- Selectivity Index (IC50 ratio) WT NRAS/KRAS G12V (WT NRAS-BRAF complex): 5.0
- pIC50 [1]: > 9.22
- pIC50 [2]: > 9.22
- pIC50 [3]: 9.05
- Selectivity Index (IC50 ratio) WT KRAS/KRAS G12V (WT KRAS-BRAF complex): 4.6
